This note sets out measurements from ChEMBL document CHEMBL2016439, “Antitumor activity of annonaceous acetogenins in HepS and S180 xenografts bearing mice” (Bioorg Med Chem Lett, 2012).

Active and inactive are the calls of the source. The calls are words filed in the database; no cut-off is given here.

The test system of data set [1] is CCRF S-180. The data set can be described thus: Antitumor activity against mouse S180 cells allografted in Kunming mouse assessed as tumor growth inhibition at 15 ug/kg, ip qd administered 24 hrs post challenge for 10 days. The class given is functional. Conditions: CCRF S-180, ip, read-out: GI.
Data set [2] relates to HepS. Kind of data set: Antitumor activity against mouse HepS cells allografted in ip dosed Kunming mouse assessed as tumor growth inhibition administered qd 24 hrs post challenge for 10 days. It counts as functional, organism-based.
A short description of data set [3]: Antitumor activity against mouse HepS cells allografted in Kunming mouse assessed as tumor growth inhibition at 15 ug/kg, ip qd administered 24 hrs post challenge for 10 days. The class given is functional. Conditions: read-out: GI.
Data set [4] is described as follows: Antitumor activity against mouse HepS cells allografted in Kunming mouse assessed as tumor growth inhibition at 60 ug/kg, ip qd administered 24 hrs post challenge for 10 days. The class given is functional. Conditions: read-out: GI.
Data set [5] relates to CCRF S-180. Kind of data set: Antitumor activity against mouse S180 cells allografted in Kunming mouse assessed as tumor growth inhibition at 60 ug/kg, ip qd administered 24 hrs post challenge for 10 days. The class given is functional. The following applies: CCRF S-180, ip, read-out: GI.
Data set [6] deals with CCRF S-180. The data set can be described thus: Antitumor activity against mouse S180 cells allografted in ip dosed Kunming mouse assessed as tumor growth inhibition administered qd 24 hrs post challenge for 10 days. It counts as functional, organism-based.
For data set [7], the system named is Mus musculus. Kind of data set: Toxicity in Kunming mouse allografted with mouse S180 cells assessed as adverse effects at 60 ug/kg, ip qd administered 24 hrs post challenge for 10 days. It counts as organism-based, CCRF S-180. Conditions: in vivo, 0.06 mg/kg.
Data set [8] has as its system Mus musculus. Kind of data set: Toxicity in Kunming mouse allografted with mouse HepS cells assessed as adverse effects at 60 ug/kg, ip qd administered 24 hrs post challenge for 10 days. It counts as organism-based. Conditions: in vivo, 0.06 mg/kg.
Data set [9] relates to CCRF S-180. Kind of data set: Antitumor activity against mouse S180 cells allografted in Kunming mouse assessed as tumor growth inhibition at 40 ug/kg, ip qd administered 24 hrs post challenge for 10 days. It counts as functional. Conditions: CCRF S-180, ip, read-out: GI.
A short description of data set [10]: Antitumor activity against mouse HepS cells allografted in Kunming mouse assessed as tumor growth inhibition at 40 ug/kg, ip qd administered 24 hrs post challenge for 10 days. It counts as functional. The following applies: read-out: GI.
Data set [11] has as its system HepS. Kind of data set: Antitumor activity against mouse HepS cells allografted in Kunming mouse assessed as improved spleen index at 40 ug/kg, ip qd administered 24 hrs post challenge for 10 days. It counts as functional, organism-based.
Data set [12] deals with CCRF S-180. The data set can be described thus: Antitumor activity against mouse S180 cells allografted in Kunming mouse assessed as improved spleen index at 40 ug/kg, ip qd administered 24 hrs post challenge for 10 days. It counts as functional, organism-based.

Take `CCCCCCCCCCCC[C@@H](O)[C@H]1CC[C@H]([C@H](O)CCCCCC(O)CCCCCCC2=C[C@H](C)OC2=O)O1` (some centres undefined): the inhibition in vivo at 0.015 mg/kg stood at 43.9% in [1] and 61.5% in data set [3]. Further, the “growth inhibition (GI)” value in data set [2] and in [6] was “Dose-dependent effect” throughout. The values for the inhibition in vivo at 0.06 mg/kg in data set [4] and in [5] were 67.3% and 48.3%, respectively.

For the molecule `CCCCCCCCCC[C@H](O)[C@H]1CC[C@H]([C@H]2CC[C@H]([C@H](O)CCCCCCCCCCCCC3=C[C@H](C)OC3=O)O2)O1` [BULLANIN], the inhibition in vivo at 0.015 mg/kg in [1] came to 42.3%; in data set [3], 32.5%. The “growth inhibition (GI)” value in data set [2] and in data set [6] was “Dose-dependent effect” in each case. The inhibition in vivo at 0.06 mg/kg in [4] was 70.9%; in [5], 63.9%.

On to `CCCCCCCCCC[C@@H](O)[C@@H]1CC[C@@H]([C@@H]2CC[C@@H]([C@H](O)CCCCCCCCCC(O)CC3=CC(C)OC3=O)O2)O1` (some centres undefined) [BULLATACIN], for which the values for the inhibition in vivo at 0.015 mg/kg in data set [1] and in [3] were 65.8% and 63.4%, respectively. The “growth inhibition (GI)” value in data set [2] and in data set [6] was “Dose-dependent effect” each time.

Turning to `CCCCCCCCCC[C@H](O)[C@H]1CC[C@H]([C@H]2CC[C@H]([C@H](O)CCCCCCCCCC[C@@H](O)CC3=C[C@H](C)OC3=O)O2)O1` [BULLATACIN], the Activity result in data set [7] and in [8] was “Toxic” in each case.

With `CC(=O)O[C@H]1C(=O)[C@@]2(C)[C@H]([C@H](OC(=O)c3ccccc3)[C@]3(O)C[C@H](OC(=O)[C@H](O)[C@@H](NC(=O)c4ccccc4)c4ccccc4)C(C)=C1C3(C)C)[C@]1(OC(C)=O)CO[C@@H]1C[C@@H]2O` [PACLITAXEL], the inhibition in vivo at 0.04 mg/kg worked out at 48.9% in data set [9] and 62.2% in data set [10]. For the same molecule, the outcome in data set [11] and in data set [12] was Active.

For the molecule `CCCCCC[C@H](O)CCC[C@H](O)[C@H]1CC[C@H]([C@H](O)CC[C@H](O)[C@@H]2CC[C@@H](CCCCCCCCCC3=C[C@H](C)OC3=O)O2)O1` [SQUAMOSTATIN A], the figures for the inhibition in vivo at 0.015 mg/kg in [1] and in [3] were 52.7% and 15%, respectively. Besides, the “growth inhibition (GI)” value in data set [2] and in [6] was “Dose-dependent effect” throughout. The inhibition in vivo at 0.06 mg/kg came out at 31.2% in data set [4] and 54.2% in [5].

With `CCCCCCCCCC[C@@H](O)[C@@H]1CC[C@@H]([C@H](O)CC[C@@H](O)[C@@H]2CC[C@@H](CCCCCCCCCC3=C[C@H](C)OC3=O)O2)O1` [SQUAMOSTATIN E], the results for the inhibition in vivo at 0.015 mg/kg in data set [1] and in data set [3] were 27.2% and 34.2%, respectively. Besides, the “growth inhibition (GI)” value in data set [2] and in data set [6] was “Dose-dependent effect” each time. Further, the inhibition in vivo at 0.06 mg/kg in data set [4] was found to be 51.3%; in [5] it was 51.1%.
